Assay results published in patent US6737383B1, “Herbicidal oxadiazolidines” (priority 1999, dated 2004).

What was measured:
[1] = system: sugar beet; experiment: Test B pre/postemergence sugar beet; assay type: in vivo, Beta vulgaris; conditions: for Sugarbeets plant response rating: Postemergence; for Plant response rating, Sugarbeets: Preemergence
Summary of the method: (§1)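 Test chemicals in a non-phytotoxic solvent mixture with surfactant were sprayed preemergence onto planted seeds and postemergence onto plants 2 to 18 cm tall (1- to 4-leaf stage). After twelve to sixteen days in a greenhouse, injury was visually rated against untreated controls from 0 (no effect) to 10 (complete control).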

[2] = system: crabgrass; experiment: Test B pre/postemergence crabgrass; assay type: in vivo, Digitaria sanguinalis; conditions: for Crabgrass plant response rating: Postemergence; for Plant response rating, Crabgrass: Preemergence
Summary of the method: as §1

[3] = system: duck salad; experiment: Test B flood test duck salad; assay type: in vivo, Heteranthera limosa
Summary of the method: (§2)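 Flood test on plants grown to the 2-leaf stage; treated plants kept in greenhouse twelve to sixteen days, then visually rated against controls on a 0 (no effect) to 10 (complete control) scale.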

[4] = system: giant foxtail; experiment: Test B pre/postemergence giant foxtail; assay type: in vivo, Setaria faberii; conditions: for Giant foxtail plant response rating: Postemergence; for Plant response rating, Giant foxtail: Preemergence
Summary of the method: as §1

[5] = system: morningglory; experiment: Test B pre/postemergence morningglory; assay type: in vivo, Ipomoea hederacea; conditions: for Morningglory plant response rating: Postemergence; for Plant response rating, Morningglory: Preemergence
Summary of the method: as §1

[6] = system: wheat; experiment: Test B pre/postemergence wheat; assay type: in vivo, Triticum aestivum; conditions: for Wheat plant response rating: Postemergence; for Plant response rating, Wheat: Preemergence
Summary of the method: as §1

[7] = system: rape; experiment: Test B pre/postemergence rape; assay type: in vivo, Brassica napus; conditions: for Rape plant response rating: Postemergence; for Plant response rating, Rape: Preemergence
Summary of the method: as §1

[8] = system: purple nutsedge; experiment: Test B pre/postemergence purple nutsedge; assay type: in vivo, Cyperus rotundus; conditions: for Nutsedge plant response rating: Postemergence; for Plant response rating, Nutsedge: Preemergence
Summary of the method: as §1

[9] = system: bamyardgrass; experiment: Test B flood test barnyardgrass; assay type: in vivo, Echinochloa crus-galli
Summary of the method: as §2

[10] = system: blackgrass; experiment: Test B pre/postemergence blackgrass; assay type: in vivo, Alopecurus myosuroides; conditions: for Blackgrass plant response rating: Postemergence; for Plant response rating, Blackgrass: Preemergence
Summary of the method: as §1

[11] = system: corn; experiment: Test B pre/postemergence corn; assay type: in vivo, Zea mays; conditions: for Corn plant response rating: Postemergence; for Plant response rating, Corn: Preemergence
Summary of the method: as §1

[12] = system: velvetleaf; experiment: Test B pre/postemergence velvetleaf; assay type: in vivo, Abutilon theophrasti; conditions: for Velvetleaf plant response rating: Postemergence; for Plant response rating, Velvetleaf: Preemergence
Summary of the method: as §1

[13] = system: soybean; experiment: Test B pre/postemergence soybean; assay type: in vivo, Glycine max; conditions: for Soybean plant response rating: Postemergence; for Plant response rating, Soybean: Preemergence
Summary of the method: as §1

[14] = system: smallflower flatsedge; experiment: Test B flood test smallflower flatsedge; assay type: in vivo, Cyperus difformis
Summary of the method: as §2

[15] = system: cocklebur; experiment: Test B pre/postemergence cocklebur; assay type: in vivo, Xanthium strumarium; conditions: for Cocklebur plant response rating: Postemergence; for Plant response rating, Cocklebur: Preemergence
Summary of the method: as §1

[16] = system: rice; experiment: Test B flood test rice; assay type: in vivo, Oryza sativa
Summary of the method: as §2

[17] = system: bedstraw; experiment: Test B pre/postemergence bedstraw; assay type: in vivo, Galium aparine; conditions: Postemergence
Summary of the method: as §1

[18] = system: pigweed; experiment: Test B pre/postemergence pigweed; assay type: in vivo, Amaranthus retroflexus; conditions: for Redroot pigweed plant response rating: Postemergence; for Plant response rating, Redroot pigweed: Preemergence
Summary of the method: as §1

[19] = system: surinam grass; experiment: Test B pre/postemergence surinam grass; assay type: in vivo, Brachiaria decumbens; conditions: for B. signalgrass plant response rating: Postemergence; for Plant response rating, B. signalgrass: Preemergence
Summary of the method: as §1

[20] = system: wild oat; experiment: Test B pre/postemergence wild oat; assay type: in vivo, Avena fatua; conditions: for Wild oats plant response rating: Postemergence; for Plant response rating, Wild oats: Preemergence
Summary of the method: as §1

[21] = Rate 125 g/ha, scale of 0 to 10 where 0 is no effect and 10 is complete control
[22] = Rate 500 g/ha, scale of 0 to 10 where 0 is no effect and 10 is complete control
[23] = Rate 250 g/ha, scale 0 to 10, 0 is no effect, 10 is complete control
[24] = Rate 500 g/ha, scale 0 to 10, 0 is no effect, 10 is complete control
[25] = Rate 1000 g/ha, scale 0 to 10 (0 no effect, 10 complete control)
[26] = Rate 250 g/ha, scale 0 to 10 (0 no effect, 10 complete control)
[27] = Pre-emergence, Rate 1000 g/ha, scale 0 to 10 (0 no effect, 10 complete control)
[28] = Rate 125 g/ha, under heading Pre-emergence, flood test species, visual evaluation after twelve to sixteen days
[29] = Rate 250 g/ha, Pre-emergence (flood test species), scale 0 to 10, 0 is no effect, 10 is complete control
[30] = Rate 500 g/ha, Pre-emergence section of Table B, 0 to 10 scale (0 no effect, 10 complete control)

COC(=O)C(CCO)n1c(=O)on(C(=O)N(c2ccccc2)C(C)C)c1=O (centres unmarked) [Compound 678]
Sugarbeets plant response rating [1, 21]: 0
Plant response rating, Sugarbeets [1, 21]: 0
Plant response rating, Sugarbeets [1, 22]: 0
Sugarbeets plant response rating [1, 23]: 0
Sugarbeets plant response rating [1, 24]: 0
Plant response rating, Sugarbeets [1, 25]: 0
Crabgrass plant response rating [2, 21]: 0
Plant response rating, Crabgrass [2, 21]: 0
Plant response rating, Crabgrass [2, 26]: 0
Plant response rating, Crabgrass [2, 22]: 1
Crabgrass plant response rating [2, 23]: 0
Crabgrass plant response rating [2, 24]: 6
Plant response rating, Crabgrass [2, 25]: 3
Ducksalad plant response rating [3, 27]: 0
Ducksalad plant response rating (0 to 10 scale, 0 is no effect, 10 is complete control) [3, 28]: 0
Ducksalad plant response rating [3, 29]: 0
Ducksalad plant response rating [3, 30]: 0
Giant foxtail plant response rating [4, 21]: 0
Giant foxtail plant response rating [4, 25]: 7
Plant response rating, Giant foxtail [4, 21]: 0
Plant response rating, Giant foxtail [4, 22]: 4
Giant foxtail plant response rating [4, 23]: 1
Giant foxtail plant response rating [4, 24]: 6
Plant response rating, Giant foxtail [4, 25]: 6
Morningglory plant response rating [5, 21]: 6
Plant response rating, Morningglory [5, 21]: 0
Plant response rating, Morningglory [5, 22]: 0
Morningglory plant response rating [5, 23]: 6
Morningglory plant response rating [5, 24]: 8
Plant response rating, Morningglory [5, 25]: 1
Wheat plant response rating [6, 21]: 0
Plant response rating, Wheat [6, 21]: 0
Plant response rating, Wheat [6, 22]: 0
Wheat plant response rating [6, 23]: 0
Wheat plant response rating [6, 24]: 0
Plant response rating, Wheat [6, 25]: 0
Rape plant response rating [7, 21]: 0
Rape plant response rating [7, 25]: 2
Plant response rating, Rape [7, 21]: 0
Plant response rating, Rape [7, 22]: 0
Rape plant response rating [7, 23]: 0
Rape plant response rating [7, 24]: 0
Plant response rating, Rape [7, 25]: 0
Nutsedge plant response rating [8, 21]: 0
Plant response rating, Nutsedge [8, 21]: 0
Plant response rating, Nutsedge [8, 22]: 0
Nutsedge plant response rating [8, 23]: 0
Nutsedge plant response rating [8, 24]: 0
Plant response rating, Nutsedge [8, 25]: 0
Barnyardgrass plant response rating [9, 27]: 0
Barnyardgrass plant response rating (0 to 10 scale, 0 is no effect, 10 is complete control) [9, 28]: 0
Barnyardgrass plant response rating [9, 29]: 0
Barnyardgrass plant response rating [9, 30]: 0
Blackgrass plant response rating [10, 21]: 0
Blackgrass plant response rating [10, 25]: 6
Plant response rating, Blackgrass [10, 21]: 0
Plant response rating, Blackgrass [10, 26]: 0
Plant response rating, Blackgrass [10, 22]: 0
Blackgrass plant response rating [10, 23]: 0
Blackgrass plant response rating [10, 24]: 3
Plant response rating, Blackgrass [10, 25]: 1
Corn plant response rating [11, 21]: 0
Corn plant response rating [11, 25]: 0
Plant response rating, Corn [11, 21]: 0
Plant response rating, Corn [11, 26]: 0
Plant response rating, Corn [11, 22]: 0
Corn plant response rating [11, 23]: 0
Corn plant response rating [11, 24]: 0
Plant response rating, Corn [11, 25]: 0
Velvetleaf plant response rating [12, 21]: 0
Plant response rating, Velvetleaf [12, 21]: 0
Plant response rating, Velvetleaf [12, 22]: 2
Velvetleaf plant response rating [12, 23]: 0
Velvetleaf plant response rating [12, 24]: 3
Plant response rating, Velvetleaf [12, 25]: 5
Soybean plant response rating [13, 21]: 1
Plant response rating, Soybean [13, 21]: 0
Plant response rating, Soybean [13, 22]: 0
Soybean plant response rating [13, 23]: 2
Soybean plant response rating [13, 24]: 2
Plant response rating, Soybean [13, 25]: 0
S. Flatsedge plant response rating [14, 27]: 0
S. Flatsedge plant response rating (0 to 10 scale, 0 is no effect, 10 is complete control) [14, 28]: 0
S. Flatsedge plant response rating [14, 29]: 0
S. Flatsedge plant response rating [14, 30]: 0
Cocklebur plant response rating [15, 21]: 0
Cocklebur plant response rating [15, 25]: 3
Plant response rating, Cocklebur [15, 21]: 0
Plant response rating, Cocklebur [15, 26]: 0
Plant response rating, Cocklebur [15, 22]: 0
Cocklebur plant response rating [15, 23]: 0
Cocklebur plant response rating [15, 24]: 2
Plant response rating, Cocklebur [15, 25]: 0
Rice plant response rating [16, 27]: 0
Rice plant response rating (0 to 10 scale, 0 is no effect, 10 is complete control) [16, 28]: 0
Rice plant response rating [16, 29]: 0
Rice plant response rating [16, 30]: 0
Bedstraw plant response rating [17, 21]: 0
Bedstraw plant response rating [17, 25]: 0
Bedstraw plant response rating [17, 23]: 0
Bedstraw plant response rating [17, 24]: 0
Redroot pigweed plant response rating [18, 21]: 0
Redroot pigweed plant response rating [18, 25]: 5
Plant response rating, Redroot pigweed [18, 21]: 0
Plant response rating, Redroot pigweed [18, 22]: 0
Redroot pigweed plant response rating [18, 23]: 0
Redroot pigweed plant response rating [18, 24]: 2
Plant response rating, Redroot pigweed [18, 25]: 4
B. signalgrass plant response rating [19, 21]: 0
B. signalgrass plant response rating [19, 25]: 4
Plant response rating, B. signalgrass [19, 21]: 0
Plant response rating, B. signalgrass [19, 26]: 0
Plant response rating, B. signalgrass [19, 22]: 0
B. signalgrass plant response rating [19, 23]: 0
B. signalgrass plant response rating [19, 24]: 2
Plant response rating, B. signalgrass [19, 25]: 0
Wild oats plant response rating [20, 21]: 0
Plant response rating, Wild oats [20, 21]: 0
Plant response rating, Wild oats [20, 22]: 0
Wild oats plant response rating [20, 23]: 0
Wild oats plant response rating [20, 24]: 0
Plant response rating, Wild oats [20, 25]: 0
